This is an account of results in patent US20020009491A1, “Compositions and methods for enhancing drug delivery across biological membranes and tissues” (priority 2000, published 2002).

Data set [1] in a line: Water solubility of taxol phosphate analog / arginine heptamer salt versus taxol.
Description: This water soluble analog of taxol was assayed for biological activity using a standard cytotoxicity assay.
For data set [2] the following is noted: cited from earlier work.
The conditions of data set [3]: fluorescein alone; cited from earlier work.

`CC(=O)O[C@H]1C(=O)[C@@]2(C)[C@H]([C@H](OC(=O)c3ccccc3)[C@]3(O)C[C@H](OC(=O)[C@H](O)[C@@H](NC(=O)c4ccccc4)c4ccccc4)C(C)=C1C3(C)C)[C@]1(OC(C)=O)CO[C@@H]1C[C@@H]2O` [taxol, paclitaxel]: in data set [1], the solubility in water result is “very limited solubility”. Also, in data set [2], the water solubility entry was “≈ 0.25 μg/mL”.
Take `CC(=O)O[C@@]12CO[C@@H]1C[C@H](O)[C@@]1(C)C(=O)[C@H](O)C3=C(C)[C@@H](OC(=O)[C@H](O)[C@@H](NC(=O)OC(C)(C)C)c4ccccc4)C[C@@](O)([C@@H](OC(=O)c4ccccc4)[C@H]21)C3(C)C` [taxotere]: in data set [2], the water solubility is 6 to 7 µg/mL.
With `O=C1OC2(c3ccc(O)cc3Oc3cc(O)ccc32)c2ccccc21` [fluorescein], the “solubility in water (general statement)” value in data set [3] is “poorly soluble”.
